≈ marks a conversion by molar mass, not a printed value. Square brackets hold non-standard residues; d marks the D form. Ends that are not written are not given here. Dbu = diaminobutyric acid (X in this publication); code O = not defined here; Orn = NCCC[C@H](N)C(=O)O
What was measured:
E. coli [1] = test: In vitro serum availability, MCZ assay, indicator bacteria E. coli; type: cell-based; details: 50 μg/mL peptide; 90% serum as diluent; activity in serum vs same peptide without serum (100%)
Experimental: (§1) Peptide was tested at 50 μg/ml against two different strains of indicator bacteria (E. coli and VRE) both in the presence and absence of serum. For experiments performed in the presence of serum, 90% serum was used as the peptide diluent. Native PG-1 (SEQ ID NO:1) was tested as a control.
(§2) Percent availability refers to the activity of the indicated peptide in serum as compared with the activity of the same peptide in the absence of serum (assigned a value of 100%).

VRE = test: In vitro serum availability, MCZ assay, indicator bacteria VRE; type: cell-based, vancomycin-resistant Enterococcus faecium or faecalis; details: 50 μg/mL peptide; 90% serum as diluent; activity in serum vs same peptide without serum (100%)
Experimental: as §1, §2

[2] = test system: Pseudomonas aruginosa (Psa); test: MIC, antimicrobial activity against Psa; type: cell-based
From the text: (§3) Methods were as described in WO 97/18826.

[3] = test system: methicillin resistant Staphylococcus aureus (MRSA); test: MIC, antimicrobial activity against MRSA; type: cell-based
From the text: as §3

[4] = test system: vancomycin resistant Enterococcus faecium (VREF); test: MIC, antimicrobial activity against VREF; type: cell-based
From the text: as §3

[5] = test system: Candida albicans (C. alb); test: MIC, antimicrobial activity against C. alb; type: cell-based
From the text: as §3

[6] = test system: ME-180 (human cervical carcinoma) cells; test: Cytotoxicity, MTT assay; type: cell-based; details: ME-180 cells
Experimental: Native protegrin PG-1 (SEQ ID NO:1) and melittin (SEQ ID NO:19) were tested as controls.

human red blood cells = test: Hemolytic activity against human red blood cells; details: FIG. 1; compared with native PG-1 and melittin
Experimental: In the assay, various concentrations of peptides were incubated with human red blood cells and the percentage of hemolysis determined.

E. coli [7] = test: Antimicrobial activity against E. coli in borate buffered saline with and without lysozyme; type: cell-based; details: presence vs absence of lysozyme
From the text: The protegrins of the invention retain their activity against microbes in the context of borate solutions that are commonly used in eye care products. […] This effect was more pronounced when the PG-3 was autoclaved and similar patterns were obtained for both the free-acid and the amide forms. Accordingly, the protegrins may be used as preservatives in such compositions or as antimicrobials for treatment of eye infections, such as conjunctivitis and corneal ulcers.

## WTCYCOOOFCVCV-NH2 (WTCYC[code O][code O][code O]FCVCV-NH2; cysteine pairing not given here; reading uncertain; also: printed as WTCYCOOOFCVCV-NH2)
E. coli [1]
  In Vitro Serum Availability (%) E. coli: 4%
VRE
  In Vitro Serum Availability (%) VRE: 2%
[2]
  MIC Psa: 1 μ g/ml
[3]
  MIC MRSA: 16 μ g/ml
[4]
  MIC VREF: 0.25 μ g/ml
[5]
  MIC C. alb.: 1.6 μ g/ml

## RGGRLCTCRRRFCVCVGR-NH2 (ends and bridges not checked) [[^7 T]PG-1]
[6]
  EC50, MTT assay: 50.4 µg/mL
Human red blood cells
  hemolytic activity against human red blood cells (in words): decreased hemolytic activity

## OTOLCYCOZOFCVCV-NH2
E. coli [1]
  In Vitro Serum Availability (%) E. coli: 30%
VRE
  In Vitro Serum Availability (%) VRE: 8%
[2]
  MIC Psa: 2 μ g/ml
[3]
  MIC MRSA: 64 μ g/ml
[4]
  MIC VREF: 8 μ g/ml
[5]
  MIC C. alb.: > 64 μ g/ml

## JLCFCOOOFCTCV-NH2
[2]
  MIC Psa: 4 μ g/ml
[3]
  MIC MRSA: 64 μ g/ml
[4]
  MIC VREF: 2 μ g/ml
[5]
  MIC C. alb.: 64 μ g/ml

## CC[C@H](C)[C@H](NC(=O)CN)C(=O)NCC(=O)N[C@@H](C)C(=O)N[C@H](C(=O)N[C@@H](CC(C)C)C(=O)N[C@@H](CCCCN)C(=O)N[C@H](C(=O)N[C@@H](CC(C)C)C(=O)N[C@H](C(=O)N[C@H](C(=O)NCC(=O)N[C@@H](CC(C)C)C(=O)N1CCC[C@H]1C(=O)N[C@@H](C)C(=O)N[C@@H](CC(C)C)C(=O)N[C@H](C(=O)N[C@@H](CO)C(=O)N[C@@H](Cc1c[nH]c2ccccc12)C(=O)N[C@H](C(=O)N[C@@H](CCCCN)C(=O)N[C@@H](CCCNC(=N)N)C(=O)N[C@@H](CCCCN)C(=O)N[C@@H](CCCNC(=N)N)C(=O)N[C@@H](CCC(N)=O)C(=O)N[C@@H](CCC(N)=O)C(N)=O)[C@@H](C)CC)[C@@H](C)CC)[C@@H](C)O)[C@@H](C)O)C(C)C)C(C)C [Melittin, reference compound]
[6]
  EC50, MTT assay: 8.0 µg/mL (≈ 2.81 µM)

## OGGOTCYCOOOFCVCVGO-NH2 ([code O]GG[code O]TCYC[code O][code O][code O]FCVCVG[code O]-NH2; cysteine pairing not given here; reading uncertain; also: printed as OGGOTCYCOOOFCVCVGO-NH2)
E. coli [1]
  In Vitro Serum Availability (%) E. coli: 40%
VRE
  In Vitro Serum Availability (%) VRE: 9%
[2]
  MIC Psa: 1 μ g/ml
[3]
  MIC MRSA: > 64 μ g/ml
[4]
  MIC VREF: 3.3 μ g/ml
[5]
  MIC C. alb.: > 64 μ g/ml

## RGGRLCYCRRRFCVCTGR-NH2 (ends and bridges not checked) [[^16 T]PG-1]
[6]
  EC50, MTT assay: 122.6 µg/mL
Human red blood cells
  hemolytic activity against human red blood cells (in words): decreased hemolytic activity

## OTTLCYCOGOFCVCVGO-NH2 ([Orn]TTLCYC[Orn]G[Orn]FCVCVG[Orn]-NH2; cysteine pairing not given here)
E. coli [1]
  In Vitro Serum Availability (%) E. coli: 10%
VRE
  In Vitro Serum Availability (%) VRE: 3%
[2]
  MIC Psa: 0.5 μ g/ml
[3]
  MIC MRSA: 32 μ g/ml
[4]
  MIC VREF: 1 μ g/ml
[5]
  MIC C. alb.: 32 μ g/ml

## JTCYCOOOFCVCV-NH2
[2]
  MIC Psa: 2 μ g/ml
[3]
  MIC MRSA: 32 μ g/ml
[4]
  MIC VREF: 6.67 μ g/ml
[5]
  MIC C. alb.: > 64 μ g/ml

## RGGRLCYCRRRFCTCVGR-NH2 (ends and bridges not checked) [[^14 T]PG-1]
[6]
  EC50, MTT assay: 154.8 µg/mL
[6]; MTT assay
  cytotoxicity compared with native PG-1 and melittin (in words): less cytotoxic than native PG-1 and the control peptide melittin
Human red blood cells
  hemolytic activity against human red blood cells (in words): decreased hemolytic activity

## CC(C)C[C@H](NC(=O)[C@H](CCCNC(=N)N)NC(=O)CNC(=O)CNC(=O)[C@@H](N)CCCNC(=N)N)C(=O)N[C@H]1CSSC[C@@H](C(=O)N[C@H](C(=O)NCC(=O)N[C@@H](CCCNC(=N)N)C(N)=O)C(C)C)NC(=O)[C@H](C(C)C)NC(=O)[C@@H]2CSSC[C@H](NC(=O)[C@H](Cc3ccc(O)cc3)NC1=O)C(=O)N[C@@H](CCCNC(=N)N)C(=O)N[C@@H](CCCNC(=N)N)C(=O)N[C@@H](CCCNC(=N)N)C(=O)N[C@@H](Cc1ccccc1)C(=O)N2 [Native PG-1, RGGRLCYCRRRFCVCVGR-NH2, reference compound]
Human red blood cells
  hemolytic activity against human red blood cells (in words): hemolytic against human red blood cells

## JTCFCOOOFCTCV-NH2
[2]
  MIC Psa: 16 μ g/ml
[3]
  MIC MRSA: > 128 μ g/ml
[4]
  MIC VREF: 32 μ g/ml
[5]
  MIC C. alb.: > 128 μ g/ml

## XTXLCYCXXXFCTCV-NH2 ([Dbu]T[Dbu]LCYC[Dbu][Dbu][Dbu]FCTCV-NH2; not fully specified (N-terminus); cysteine pairing not given here) [*XTXLCYCXXXFCTCV-NH2]
[2]
  MIC Psa: 1.3 μ g/ml
[3]
  MIC MRSA: 16 μ g/ml
[4]
  MIC VREF: 1 μ g/ml
[5]
  MIC C. alb.: 8 μ g/ml

## RGGRTCYCRRRFCVCVGR-NH2 (ends and bridges not checked) [[^5 T]PG-1]
E. coli [1]
  In Vitro Serum Availability (%) E. coli: 10%
VRE
  In Vitro Serum Availability (%) VRE: 1.6%
[2]
  MIC Psa: 2 μ g/ml
[3]
  MIC MRSA: 8 μ g/ml
[4]
  MIC VREF: 0.3 μ g/ml
[5]
  MIC C. alb.: 8 μ g/ml
[6]
  EC50, MTT assay: 101.3 µg/mL
Human red blood cells
  hemolytic activity against human red blood cells (in words): decreased hemolytic activity

## PG-3: naturally-occurring protegrin from porcine leukocytes; free-acid and amide forms (RGGGLCYCRRRFCVCVGR; ends and bridges not checked; also: free acid or amide forms; UniProt P32196 131-148, looked up)
E. coli [7]
  effect of lysozyme on antimicrobial effectiveness: the presence of lysozyme enhanced the effectiveness

Source: US6043220A, “Threonine-containing protegrins” (IntraBiotics Pharmaceuticals, Inc., priority 1997, dated 2000)
